From BindingDB's records for doi:10.1021/acs.jmedchem.6b01578 (University of Bologna, 2017)
Values joined by “and” are separate entries in the source; they are usually repeats but may differ in a detail not shown here. Identical values can stand only once.

Assay: Agonist activity at recombinant human CB1 receptor expressed in CHO-K1 cells assessed as increase in cAMP accumulation after 20 mins by HTRF assay

Compound	EC50
CCCC(C)(C)c1ccc2c(c1)OC(C)(C)[C@@H]1CCC(C)=C[C@@H]21	667 nM
COc1cc(OC(=O)NCCCCN2CCN(c3cccc(Cl)c3Cl)CC2)ccc1-c1ccccc1	220 nM and 219 nM
CCCCCc1cc(O)c2c(c1)OC(C)(C)[C@@H]1CCC(C)=C[C@@H]21 [(10R,10aR)-6,6,9-Trimethyl-3-pentyl-6a,7,8,10a-tetrahydro-6H-benzo[c]chromen-1-ol]	10 nM
CCCCCCC(C)(C)c1ccc2c(c1)OC(C)(C)[C@@H]1CCC(CO)=C[C@@H]21	1.2 nM
COc1ccccc1N1CCN(CCCCNC(=O)Oc2ccc3c(c2)[nH]c2ccccc23)CC1	2300 nM and 2340 nM
